“Also recorded” adds a separate entry of the source. Like-named read-outs stand apart in the source and are kept apart here.
How the values were obtained:
[1] = biological target: T1, hTRPA1 (Homo sapiens, UniProt O75762); experiment: Membrane potential dye fluorescence assay (FLIPR/FLEXstation), activation of hTRPA1 in transfected HEK293 cells; format: cell-based
T1 construct: The full length hTRPA1 was amplified by PCR with Kpn1 and Xho1 restriction enzyme sites; expressed in transfected cells; also transient transfection
T1 sequence (O75762 whole entry): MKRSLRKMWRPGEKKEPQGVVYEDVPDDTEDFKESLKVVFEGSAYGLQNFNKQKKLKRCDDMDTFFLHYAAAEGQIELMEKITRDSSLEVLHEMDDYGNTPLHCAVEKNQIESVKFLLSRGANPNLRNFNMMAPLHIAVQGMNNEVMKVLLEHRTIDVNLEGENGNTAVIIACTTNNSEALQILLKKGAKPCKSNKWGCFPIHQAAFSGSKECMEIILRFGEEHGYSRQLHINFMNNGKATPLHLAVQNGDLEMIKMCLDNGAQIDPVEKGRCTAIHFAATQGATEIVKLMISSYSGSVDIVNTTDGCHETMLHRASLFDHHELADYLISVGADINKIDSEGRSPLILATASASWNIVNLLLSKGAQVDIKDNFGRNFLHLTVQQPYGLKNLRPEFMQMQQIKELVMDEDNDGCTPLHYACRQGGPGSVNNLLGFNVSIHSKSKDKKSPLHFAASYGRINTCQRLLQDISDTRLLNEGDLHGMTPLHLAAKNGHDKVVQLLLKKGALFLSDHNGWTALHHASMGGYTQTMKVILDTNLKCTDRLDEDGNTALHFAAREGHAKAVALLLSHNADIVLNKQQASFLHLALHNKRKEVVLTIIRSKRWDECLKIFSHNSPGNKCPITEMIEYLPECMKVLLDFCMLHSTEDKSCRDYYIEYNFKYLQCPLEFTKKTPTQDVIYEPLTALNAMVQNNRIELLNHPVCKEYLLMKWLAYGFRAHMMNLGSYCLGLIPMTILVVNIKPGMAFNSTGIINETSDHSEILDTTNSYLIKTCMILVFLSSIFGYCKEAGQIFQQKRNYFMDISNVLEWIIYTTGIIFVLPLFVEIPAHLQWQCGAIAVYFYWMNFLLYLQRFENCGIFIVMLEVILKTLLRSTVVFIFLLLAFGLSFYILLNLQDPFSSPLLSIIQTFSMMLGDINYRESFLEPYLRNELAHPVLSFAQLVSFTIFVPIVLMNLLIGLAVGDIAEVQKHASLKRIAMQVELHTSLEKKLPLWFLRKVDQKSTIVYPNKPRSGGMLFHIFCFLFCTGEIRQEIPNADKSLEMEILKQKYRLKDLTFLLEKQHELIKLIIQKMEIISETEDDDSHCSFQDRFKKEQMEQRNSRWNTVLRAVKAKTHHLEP
Procedure: Once expression of TRPA1 was confirmed, 100 μl of the Blue or Red FMP dye (Molecular Devices) was added to each well of plates seeded with the transiently transfected cells. The plate was then incubated in a 37° C./5% CO2 incubator for 1 hour. The plate was read in a FLEXStation microplate reader (Molecular Devices) with an excitation of 530 nm and an emission of 565 nm. The fluorescence was monitored for 3 minutes upon exposure of the cells to a TRPA1 activating agent (e.g., cinnamaldehyde).
(§1) Samples in a 384-well plate were evaluated in a 5 minute assay on the FLIPR-Tetra™ (Molecular Devices). The assay was performed on a FLIPR™ using the excitation 510-545 nm and emission 565-625 nm filter sets. TRPA1-Transfected HEK cells, 15,000/well, were seeded overnight on poly-D-lysine coated 384 well plates in 20 μl media. Membrane Potential Assay Dye Red (Molecular Devices), 20 μl/well, was added and the plates incubated for 1 hour in a 37° C. and 5% CO2 incubator. The plates were then removed from the incubator and equilibrated to room temperature for 15 minutes before reading on the FLIPR®. The plates were read on the FLIPR® for a total of 3 minutes. Baseline fluorescence was obtained on the FLIPR® for 10 seconds followed by addition (typically 10 μl) of each agonist by the FLIPR® and read for an additional 2 minutes and 50 seconds.

[2] = biological target: T1, hTRPA1; experiment: Modulation of agonist-activated TRPA1 in CHO cells expressing hTRPA1 (membrane potential dye); format: cell-based
Procedure: as §1
(§2) Appropriate control experiments are performed and can easily be determined by the skilled artisan.
(§3) HEK293 cells and CHO cells expressing TRPA1 were subjected to the assay described in Example 2.

[3] = biological target: T1, hTRPA1; experiment: Modulation of agonist-activated TRPA1 in HEK293 cells expressing hTRPA1 (membrane potential dye); format: cell-based
Procedure: as §1, §2, §3

[4] = test system: mice; experiment: Taste aversion (lick) assay in mice; format: in vivo, mouse
Procedure: In this assay, the ability of identified lower alkyl phenols to evoke taste aversion in mice was measured. Mice were exposed to increasing concentrations of lower alkyl phenols.

[5] = test system: parental HEK293 cells; experiment: Membrane potential dye fluorescence assay in parental (non-transfected) HEK293 cells; format: cell-based, human
[6] = biological target: T2, hTRPV1 (Homo sapiens, UniProt Q8NER1); experiment: Membrane potential dye fluorescence assay, HEK293 cells expressing hTRPV1; format: cell-based
T2 construct: expressed in transfected cells
T2 sequence (Q8NER1 whole entry): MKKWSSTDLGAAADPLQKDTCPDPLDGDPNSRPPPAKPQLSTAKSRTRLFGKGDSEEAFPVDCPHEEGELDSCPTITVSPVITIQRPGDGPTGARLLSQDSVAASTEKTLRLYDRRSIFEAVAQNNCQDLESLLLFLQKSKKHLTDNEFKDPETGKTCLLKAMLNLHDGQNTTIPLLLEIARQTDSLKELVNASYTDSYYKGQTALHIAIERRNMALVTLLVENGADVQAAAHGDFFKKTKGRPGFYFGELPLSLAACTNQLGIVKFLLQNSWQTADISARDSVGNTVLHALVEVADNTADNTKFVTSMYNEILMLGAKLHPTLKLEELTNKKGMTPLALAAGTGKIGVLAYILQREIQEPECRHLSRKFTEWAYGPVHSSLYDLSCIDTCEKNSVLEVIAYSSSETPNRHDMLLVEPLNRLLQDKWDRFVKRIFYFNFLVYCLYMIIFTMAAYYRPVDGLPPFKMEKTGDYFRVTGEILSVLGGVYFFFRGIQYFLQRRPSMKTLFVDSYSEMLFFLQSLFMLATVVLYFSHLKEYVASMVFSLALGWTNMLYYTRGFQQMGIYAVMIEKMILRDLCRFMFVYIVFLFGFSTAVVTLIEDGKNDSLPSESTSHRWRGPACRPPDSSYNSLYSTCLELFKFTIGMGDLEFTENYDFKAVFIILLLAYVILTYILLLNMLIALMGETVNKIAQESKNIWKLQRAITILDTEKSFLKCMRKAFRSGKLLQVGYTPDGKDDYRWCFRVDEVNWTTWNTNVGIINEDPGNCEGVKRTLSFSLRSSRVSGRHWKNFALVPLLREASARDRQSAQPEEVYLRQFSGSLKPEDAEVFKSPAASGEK
Procedure: as §1
(§4) HEK293 cells were stably transfected with one of hTRPA1, hTRPV1 or hTRPM5. CHO cells were stably transfected with one of hTRPM4B or TRPM5. Parental HEK293 and CHO cells were also used as a negative control.

[7] = biological target: T3, hTRPM4B (Homo sapiens, UniProt Q8TD43); experiment: Membrane potential dye fluorescence assay, CHO cells expressing hTRPM4B; format: cell-based
T3 construct: expressed in transfected cells
T3 sequence (Q8TD43 whole entry): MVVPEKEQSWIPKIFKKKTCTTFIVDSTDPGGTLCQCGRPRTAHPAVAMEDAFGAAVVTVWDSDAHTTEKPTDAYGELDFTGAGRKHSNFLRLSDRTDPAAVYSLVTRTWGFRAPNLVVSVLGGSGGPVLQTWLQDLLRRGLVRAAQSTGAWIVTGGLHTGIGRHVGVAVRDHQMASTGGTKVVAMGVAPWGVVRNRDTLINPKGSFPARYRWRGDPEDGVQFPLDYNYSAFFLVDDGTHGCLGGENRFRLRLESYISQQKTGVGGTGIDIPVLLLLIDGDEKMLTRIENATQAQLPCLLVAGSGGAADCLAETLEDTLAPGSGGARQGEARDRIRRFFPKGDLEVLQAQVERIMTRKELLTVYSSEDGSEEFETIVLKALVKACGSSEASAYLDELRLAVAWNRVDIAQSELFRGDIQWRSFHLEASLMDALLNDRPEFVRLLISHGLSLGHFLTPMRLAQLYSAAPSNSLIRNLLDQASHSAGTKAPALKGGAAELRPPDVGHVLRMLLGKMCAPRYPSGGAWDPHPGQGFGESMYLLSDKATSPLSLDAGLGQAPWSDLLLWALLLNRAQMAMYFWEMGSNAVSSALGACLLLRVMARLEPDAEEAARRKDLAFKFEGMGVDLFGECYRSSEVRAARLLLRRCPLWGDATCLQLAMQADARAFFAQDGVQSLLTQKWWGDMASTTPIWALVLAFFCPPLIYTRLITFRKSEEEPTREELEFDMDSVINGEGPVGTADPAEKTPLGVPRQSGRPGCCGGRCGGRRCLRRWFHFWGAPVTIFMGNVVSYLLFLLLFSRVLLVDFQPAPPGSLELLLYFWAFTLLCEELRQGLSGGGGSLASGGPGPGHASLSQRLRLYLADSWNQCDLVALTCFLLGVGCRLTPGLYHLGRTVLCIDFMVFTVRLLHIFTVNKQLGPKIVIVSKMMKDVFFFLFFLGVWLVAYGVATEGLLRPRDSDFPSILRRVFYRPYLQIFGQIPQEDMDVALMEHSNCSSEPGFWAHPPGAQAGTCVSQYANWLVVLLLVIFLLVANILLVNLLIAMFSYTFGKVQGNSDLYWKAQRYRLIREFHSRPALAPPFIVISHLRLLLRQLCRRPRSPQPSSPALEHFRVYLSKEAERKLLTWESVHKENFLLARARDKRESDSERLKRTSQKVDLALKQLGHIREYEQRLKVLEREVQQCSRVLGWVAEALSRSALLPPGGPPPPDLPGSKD
Procedure: as §1, §4

[8] = biological target: T4, hTRPM5 (Homo sapiens, UniProt Q9NZQ8); experiment: Membrane potential dye fluorescence assay, HEK293 or CHO cells expressing hTRPM5; format: cell-based
T4 construct: expressed in transfected cells
T4 sequence (Q9NZQ8 1-1165): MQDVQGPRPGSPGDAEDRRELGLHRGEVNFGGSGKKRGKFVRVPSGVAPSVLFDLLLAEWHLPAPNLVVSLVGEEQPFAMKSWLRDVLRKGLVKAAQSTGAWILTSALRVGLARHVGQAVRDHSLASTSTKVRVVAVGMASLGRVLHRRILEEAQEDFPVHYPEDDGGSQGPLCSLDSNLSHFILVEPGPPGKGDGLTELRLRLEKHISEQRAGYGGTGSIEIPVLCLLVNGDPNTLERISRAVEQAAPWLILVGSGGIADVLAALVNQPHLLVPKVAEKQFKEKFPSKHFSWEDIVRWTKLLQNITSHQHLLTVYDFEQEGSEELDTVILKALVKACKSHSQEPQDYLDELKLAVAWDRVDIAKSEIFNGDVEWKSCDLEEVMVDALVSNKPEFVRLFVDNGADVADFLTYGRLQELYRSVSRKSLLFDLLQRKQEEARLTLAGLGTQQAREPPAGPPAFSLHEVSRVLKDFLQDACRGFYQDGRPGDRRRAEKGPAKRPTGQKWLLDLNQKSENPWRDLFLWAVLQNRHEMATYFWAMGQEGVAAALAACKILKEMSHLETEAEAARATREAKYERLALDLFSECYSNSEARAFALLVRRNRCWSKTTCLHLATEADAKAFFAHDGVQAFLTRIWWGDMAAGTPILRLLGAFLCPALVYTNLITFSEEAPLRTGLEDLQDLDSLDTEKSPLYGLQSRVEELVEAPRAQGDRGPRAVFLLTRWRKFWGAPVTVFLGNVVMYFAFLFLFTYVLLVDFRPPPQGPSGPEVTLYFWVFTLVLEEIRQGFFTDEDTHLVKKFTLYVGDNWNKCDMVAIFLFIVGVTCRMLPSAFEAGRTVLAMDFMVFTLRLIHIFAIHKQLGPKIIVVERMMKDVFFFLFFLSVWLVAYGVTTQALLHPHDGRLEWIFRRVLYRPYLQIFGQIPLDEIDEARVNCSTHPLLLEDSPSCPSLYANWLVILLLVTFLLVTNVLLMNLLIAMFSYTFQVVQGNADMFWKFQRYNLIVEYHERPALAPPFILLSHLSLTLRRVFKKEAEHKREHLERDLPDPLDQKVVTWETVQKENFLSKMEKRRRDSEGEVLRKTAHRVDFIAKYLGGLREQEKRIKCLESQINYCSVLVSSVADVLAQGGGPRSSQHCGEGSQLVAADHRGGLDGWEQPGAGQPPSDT
Procedure: as §1, §4

[9] = hTRPA1 HEK293 cells, increase in fluorescence of membrane potential dye
[10] = mice, increasing concentrations
[11] = HEK293 cells stably transfected with hTRPA1, FMP dye, FLIPR
[12] = HEK293, increasing concentrations, FIG. 6
[13] = CHO, increasing concentrations, FIG. 6
[14] = increasing concentrations, FIG. 6

| Structure (SMILES) | TRPA1 activation / agonist activity (in words) [1, 9] | inhibition of thymol activated TRPA1 (in words) ([3]; HEK293 cells) | EC50 [1, 11] [µM] | response of parental HEK293 cells (in words) ([5]; cells not expressing TRPA1) | response of cells expressing hTRPV1 (in words) [6, 12] | response of cells expressing hTRPM4B (in words) [7, 13] | response of cells expressing hTRPM5 (in words) [8, 14] | further results |
| --- | --- | --- | --- | --- | --- | --- | --- | --- |
| CC12CCC(CC1=O)C2(C)C (stereo not drawn) [Camphor] | has no agonist activity | fully inhibited |  |  |  |  |  | TRPA1 activation / agonist activity (in words) ([1]; hTRPA1 HEK293 cells, increase in fluorescence of membrane potential dye, listed as camphor): are TRPA1 agonists; inhibition of allyl isothiocyanate activated TRPA1 (in words) [2]: potentially inhibits; inhibition of cinnamaldehyde activated TRPA1 (in words) [2]: potentially inhibits; inhibition of thymol activated TRPA1 (in words) [2]: fully inhibits; inhibition of allyl isothiocyanate activated TRPA1 (in words) ([3]; HEK293 cells): fully inhibited; inhibition of cinnamaldehyde activated TRPA1 (in words) ([3]; HEK293 cells): fully inhibited; inhibition of thymol activated TRPA1 (in words) ([3]; HEK293 cells, listed as camphor): agonists of thymol activation of TRPA1 |
| Cc1ccccc1O [o-Cresol] | generated an increase in relative fluorescence |  | 327 ± 132 | no response | did not generate the same increase in relative fluorescence | did not generate the same increase in relative fluorescence | did not generate the same increase in relative fluorescence | taste aversion, licks/trial (in words) [4, 10]: a decrease in licks/trial |
| Cc1ccc(C)c(O)c1 [2,5-dimethylphenol] | generated an increase in relative fluorescence |  | 52 ± 29 | no response | did not generate the same increase in relative fluorescence | did not generate the same increase in relative fluorescence | did not generate the same increase in relative fluorescence | taste aversion, licks/trial (in words) [4, 10]: a decrease in licks/trial |
| Oc1ccccc1 [phenol] |  |  |  |  |  |  |  | taste aversion, licks/trial (in words) ([4]; mouse, in vivo): a decrease in licks/trial; TRPA1 activation / agonist activity (in words) [1]: did not generate the same increase in relative fluorescence; response of cells expressing hTRPV1 (in words) [6]: generated an increase in relative fluorescence; response of cells expressing hTRPM4B (in words) [7]: did not generate the same increase in relative fluorescence; response of cells expressing hTRPM5 (in words) [8]: did not generate the same increase in relative fluorescence |
| CC12CCC(C(=O)C1=O)C2(C)C (stereo not drawn) [camphorquinone] | triggers an agonist response; also recorded: are TRPA1 agonists; also recorded: have agonist activity | do not act as agonists of thymol activation of TRPA1 |  |  |  |  |  | EC50 ([1]; TRPA1 HEK293 cells, FIGS. 8C and 8D, read-out: EC50 of agonist response in TRPA1): ~300 µM; effect on subsequent thymol and cinnamaldehyde responses (in words) ([3]; TRPA1 transfected HEK293 cells, compound first, then agonist): desensitizes thymol and cinnamaldehyde responses |
| Cc1ccc(O)cc1C [3,4-dimethylphenol] |  |  |  | no response |  |  |  |  |
| CC1(C(=O)O)CCC(C(=O)O)C1(C)C (stereo not drawn) [camphoric acid] | are TRPA1 agonists; also recorded: have agonist activity | do not act as agonists of thymol activation of TRPA1 |  |  |  |  |  |  |
| Cc1ccc(C(C)(C)C)c(O)c1 [2-tert-butyl-5-methylphenol] | generated an increase in relative fluorescence |  | 4 ± 2 | background fluorescence | did not generate the same increase in relative fluorescence | did not generate the same increase in relative fluorescence | did not generate the same increase in relative fluorescence |  |
| CC(C)c1cccc(C(C)C)c1O [Propofol] |  |  |  |  |  |  |  | taste aversion, licks/trial (in words) ([4]; mouse, in vivo): a decrease in licks/trial; EC50 [1]: 13 ± 6 µM; TRPA1 activation / agonist activity (in words) [1]: generated an increase in relative fluorescence; response of parental HEK293 cells (in words) [5]: background fluorescence; response of cells expressing hTRPV1 (in words) [6]: did not generate the same increase in relative fluorescence; response of cells expressing hTRPM4B (in words) [7]: did not generate the same increase in relative fluorescence; response of cells expressing hTRPM5 (in words) [8]: did not generate the same increase in relative fluorescence |
| Cc1cccc(C)c1O [2,6-dimethylphenol] | generated an increase in relative fluorescence |  | 66 ± 22 | no response | did not generate the same increase in relative fluorescence | did not generate the same increase in relative fluorescence | did not generate the same increase in relative fluorescence |  |
| CC1(C)C2CCC1(CS(N)(=O)=O)C(=O)C2 (stereo not drawn) [camphorsufomamide] | have agonist activity | do not act as agonists of thymol activation of TRPA1 |  |  |  |  |  |  |
| CC1(C)[C@@H]2C[C@H]1[C@@](C)(O)[C@@H](O)C2 [Pinanediol] | Neither isomer (+ shown) had a significant agonist activity until 10 mM | both inhibited TRPA1 activation at 1 mM |  |  |  |  |  |  |
| C=C(C)[C@H]1CC=C(C)CC1 [limonene] | are TRPA1 agonists; also recorded: have agonist activity | do not act as agonists of thymol activation of TRPA1 |  |  |  |  |  |  |

Source: US7674594B2, “Screening assay for inhibitors of TRPA1 activation by a lower alkyl phenol” (Redpoint Bio Corporation, priority 2006, dated 2010)
